In assay [1] the test system is Coptotermes spp. In words: Example I: field test on a 100 hectare oil palm plot, Quadrants A-D, infested trees inspected monthly for 24 months. The format is in vivo. Conditions: liquid fipronil 2.5 ml/5 L drenching. Here is the method: Testing was performed to determine the effect in the field of an extruded composite member in the form of Recruit® HD, further details of which are provided in U.S. patent application Ser. No. 12/004,655, on Coptotermes spp. More particularly, a 100 hectare plot of oil palm trees was divided into four quadrants: Quadrants A, B, C and D. The palm oil trees in each of Quadrants A-D were investigated for the presence of termite activity or infestation, and the affected trees were marked accordingly. The affected trees in Quadrants A and C were each treated with liquid fipronil (2.5 ml/5 L drenching), and the affected trees in Quadrants B and D were each treated with a 50 g extruded composite member in the form of Recruit® HD (0.5% hexaflumuron) in a manner similar to that described above in connection with system 60. For Quadrants B and D, consumption of the extruded composite members was investigated and recorded accordingly. Post-treatment inspection of the affected trees was performed on a monthly basis for 24 months following initiation of treatment.
The results of the treatments in Quadrants A-D on a monthly basis over a 24 month period of time following initial treatment are graphically illustrated in FIG. 6.

Assay [2] has as its system Coptotermes spp. Description: Example II: field test on a 60 hectare oil palm plot divided into two plots, infested trees inspected monthly for 24 months. The format is in vivo. Conditions: for Infested Trees: plot 1 (4461 trees) liquid fipronil 2.0 ml/5 L drenching, plot 2 (4432 trees) 50 g Recruit HD per affected tree; for % Infestation: cumulative results, plot 1 fipronil, plot 2 Recruit HD. As to the method: Testing was performed to determine the effect in the field of an extruded composite member in the form of Recruit® HD, further details of which are provided in U.S. patent application Ser. No. 12/004,655, on Coptotermes spp. More particularly, a 60 hectare plot of oil palm trees was divided into two plots. The palm oil trees in each of the plots were investigated for the presence of termite activity or infestation, and the affected trees were marked accordingly. The affected trees in plot 1 were each treated with liquid fipronil (2.0 ml/5 L drenching), and the affected trees in plot 2 were each treated with a 50 g extruded composite member in the form of Recruit® HD (0.5% hexaflumuron) in a manner similar to that described above in connection with system 60. For plots 1 and 2, consumption of the extruded composite members was investigated and recorded accordingly. Post-treatment inspection of the affected trees was performed on a monthly basis for 24 months following initiation of treatment.

On to `N#Cc1nn(-c2c(Cl)cc(C(F)(F)F)cc2Cl)c(N)c1[S+]([O-])C(F)(F)F` (stereo not drawn) [Fipronil, fipronil], for which the “Infested Trees” value with Coptotermes spp. [1] (Quadrant A (2246 trees), 0 months (before treatment)) is 29; with Coptotermes spp. [1] (Quadrant A (2246 trees), 7 months), 30; in the assay on Coptotermes spp. [1] (Quadrant A (2246 trees), 12 months), 29; in the assay with Coptotermes spp. [1] (Quadrant A (2246 trees), 18 months), 20; in the assay on Coptotermes spp. [1] (Quadrant A (2246 trees), 24 months), 13; with Coptotermes spp. [1] (Quadrant C (2215 trees), 0 months (before treatment)), 71. In addition, the “Infested Trees” value in the assay on Coptotermes spp. [1] (Quadrant C (2215 trees), 7 months) came to 45; in the assay with Coptotermes spp. [1] (Quadrant C (2215 trees), 12 months) it was 51; with Coptotermes spp. [1] (Quadrant C (2215 trees), 18 months) it was 40; with Coptotermes spp. [1] (Quadrant C (2215 trees), 24 months), 22; in the assay on Coptotermes spp. [2] (0 months (before treatment)), 100; in the assay with Coptotermes spp. [2] (7 months), 75. For the same compound, the figures for the “Infested Trees” value in the assay on Coptotermes spp. [2] (12 months), with Coptotermes spp. [2] (18 months) and with Coptotermes spp. [2] (24 months) were 80, 60 and 35, respectively. Also, the entries for the “% Infestation” value in the assay on Coptotermes spp. [2] (1 year), in the assay with Coptotermes spp. [2] (2 year) and with Coptotermes spp. [2] (Pre-Treatment) were 2.31%, 1.76% and 2.24%, respectively.

(Values after US9414579B2, “Systems and methods for controlling pest infestation of a woody plant” (Dow AgroSciences LLC, priority 2013, dated 2016).)
